# Measured values published in patent US8809579B2, “Glucagon receptor antagonist compounds, compositions containing such compounds and methods of use” (Merck Sharp & Dohme Corp., priority 2009, dated 2014).
# Target: T1, human glucagon receptor (Homo sapiens, UniProt P47871)
# T1 construct: expressed in transfected cells; cell membranes used
# Test: Glucagon Receptor Binding Assay
# Settings: 125I-Glucagon binding to membranes of CHO cells expressing cloned human glucagon receptor; value for the more active diastereomer where both were prepared
# Procedure: A stable CHO (Chinese hamster ovary) cell line expressing cloned human glucagon receptor was maintained as described (Chiechi, et. al. J Biol Chem 272, 7765-9 (1997); Cascieri, et. al. J Biol Chem 274, 8694-7 (1999)). To determine antagonistic binding affinity of compounds, 0.001-0.003 mg of cell membranes from these cells were pre-incubated with 0.100 mg WGA-coated PVT SPA beads (Amersham) for 20 minutes at room temperature in 25 μL of a buffer containing 50 mM Tris-HCl (pH 7.5), 5 mM MgCl2, 2 mM EDTA, 0.1% BSA and 3% glycerol in Costar 384 well plates with clear bottoms (#3706). Next, 25 μL of ^125I-Glucagon (New England Nuclear, Mass.) (1×10^−14 mol per well) and either 1 μL solutions of test compounds or 0.001 mM unlabeled glucagon or DMSO were added and mixed. After 4-12 hours incubation at room temperature, the radioactivity bound to the cell membranes was determined in a radioactive emission detection counter (Wallac-Microbeta). Data were analyzed using the Data Analyzer software program of Merck & Co., Inc. The IC50 values were calculated using non-linear regression analysis assuming single-site competition.
# T1 sequence (P47871 26-477): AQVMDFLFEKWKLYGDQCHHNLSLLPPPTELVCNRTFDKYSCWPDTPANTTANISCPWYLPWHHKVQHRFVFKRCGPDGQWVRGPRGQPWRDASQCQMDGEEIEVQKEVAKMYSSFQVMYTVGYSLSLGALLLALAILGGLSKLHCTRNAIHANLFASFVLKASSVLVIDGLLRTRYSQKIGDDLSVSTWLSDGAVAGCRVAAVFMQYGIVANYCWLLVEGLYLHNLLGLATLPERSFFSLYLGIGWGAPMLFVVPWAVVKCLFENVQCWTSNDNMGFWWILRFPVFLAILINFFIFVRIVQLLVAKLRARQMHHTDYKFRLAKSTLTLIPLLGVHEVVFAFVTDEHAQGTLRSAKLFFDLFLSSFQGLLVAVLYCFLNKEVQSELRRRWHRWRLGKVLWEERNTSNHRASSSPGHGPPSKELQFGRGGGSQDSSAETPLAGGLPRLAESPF
row,Compound,IC50
1,"CCC[C@H](c1ccc(C(=O)NCCC(=O)O)cc1)[C@@H](Oc1cc(C#N)c(Cl)c(C(F)(F)F)c1)c1ccc(Cl)cc1 [Example 78, N-(4-{(1R)-1-[(R)-[4-chloro-3-cyano-5-(trifluoromethyl)phenoxy](4-chlorophenyl)methyl]butyl}benzoyl)-β-alanine]",1.4 nM
2,CCC[C@H](c1ccc(C(=O)NCCC(=O)O)cc1)[C@@H](Oc1ccc(C(F)(F)F)c(C#N)c1)c1ccc(Cl)cc1 [Example 15],5.9 nM
3,CCC[C@H](c1ccc(C(=O)NCCC(=O)O)cc1)[C@@H](Oc1ccc(-c2cccn2C)cc1)c1ccc(Cl)cc1 [Example 47],9.2 nM
4,CCC[C@H](c1ccc(C(=O)NCCC(=O)O)cc1)[C@@H](Oc1cc(C#N)cc(-c2ccc(C(F)(F)F)cc2)c1)c1ccc(Cl)cc1 [Example 36],6.3 nM
5,CCC[C@H](c1ccc(C(=O)NCCC(=O)O)cc1)[C@@H](Oc1cc(Cl)c(Cl)c(C#N)c1)c1ccc(Cl)cc1 [Example 85],1.1 nM
6,CCC[C@H](c1ccc(C(=O)NCCC(=O)O)cc1)[C@@H](Oc1cc(C(C)(C)C)cc(C(C)(C)C)c1)c1ccc(Cl)cc1 [Example 5],11 nM
7,"CCC[C@H](c1ccc(C(=O)NCCC(=O)O)cc1)[C@@H](Oc1ccc(Cl)c(Cl)c1)c1ccc(Cl)cc1 [Example 1, N-(4-{(1R)-1-[(R)-(4-chlorophenyl)(3,4-dichlorophenoxy)methyl]butyl}benzoyl)-β-alanine]",16 nM
8,CCC[C@H](c1ccc(C(=O)NCCC(=O)O)cc1)[C@@H](Oc1ccc(-c2ccc(C(F)(F)F)cc2)cc1C#N)c1ccc(Cl)cc1 [Example 59],0.3 nM
9,"CCC[C@H](c1ccc(C(=O)NCCC(=O)O)cc1)[C@@H](Oc1ccnc2cc(C)ccc12)c1ccc(Cl)cc1 [Example 68, N-[4-((1R)-1-{(R)-(4-chlorophenyl)[(7-methylquinolin-4-yl)oxy]methyl}butyl)benzoyl]-β-alanine]",7.2 nM
10,"CCC[C@H](c1ccc(C(=O)NCCC(=O)O)cc1)[C@@H](Oc1ccnc2cc(C#N)ccc12)c1ccc(Cl)cc1 [Example 71, N-[4-((1R)-1-{(R)-(4-chlorophenyl)[(7-cyanoquinolin-4-yl)oxy]methyl}butyl)benzoyl]-β-alanine]",5.5 nM
11,CCC[C@H](c1ccc(C(=O)NCCC(=O)O)cc1)[C@@H](Oc1ccc(C)c(C#N)c1)c1ccc(Cl)cc1 [Example 16],16 nM
12,"CCC[C@H](c1ccc(C(=O)NCCC(=O)O)cc1)[C@@H](OCc1ccc2ccccc2c1)c1ccc(Cl)cc1 [Example 73, N-(4-{(1R)-1-[(R)-(4-chlorophenyl)(2-naphthylmethoxy)methyl]butyl}benzoyl)-β-alanine]",38 nM
13,CCC[C@H](c1ccc(C(=O)NCCC(=O)O)cc1)[C@H](Oc1ccc(C(F)(F)F)cc1Cl)c1ccc(Cl)cc1 [Example 65],12 nM
14,"CCC[C@H](c1ccc(C(=O)NCCC(=O)O)cc1)[C@@H](Oc1cc(C#N)cc(C(F)(F)F)c1)c1ccc(Cl)cc1 [Example 76, N-[4-((1R)-1-{(R)-(4-chlorophenyl)[3-cyano-5-(trifluoromethyl)phenoxy]methyl}butyl)benzoyl]-β-alanine]",4.8 nM
15,"CCC[C@H](c1ccc(C(=O)NCCC(=O)O)cc1)[C@@H](Oc1cc(C(F)(F)F)nc2ccccc12)c1ccc(Cl)cc1 [Example 70, N-(4-{(1R)-1-[(R)-[(2-trifluoromethylquinolin-4-yl)oxy](4-chlorophenyl)methyl]butyl}benzoyl)-β-alanine]",2.1 nM
16,"CCC[C@H](c1ccc(C(=O)NCCC(=O)O)cc1)[C@@H](OCc1ccc(OC(F)(F)F)cc1)c1ccc(Cl)cc1 [Example 72, N-{4-[(1R)-1-((R)-(4-chlorophenyl){[4-(trifluoromethoxy)benzyl]oxy}methyl)butyl]benzoyl}-β-alanine]",32 nM
17,CCC[C@H](c1ccc(C(=O)NCCC(=O)O)cc1)[C@@H](Oc1ccc(C#N)c(Cl)c1)c1ccc(Cl)cc1 [Example 18],25 nM
18,CCC[C@H](c1ccc(C(=O)NCCC(=O)O)cc1)[C@@H](Oc1cc(C(F)(F)F)ccc1C#N)c1ccc(Cl)cc1 [Example 79],7.6 nM
19,CCC[C@H](c1ccc(C(=O)NCCC(=O)O)cc1)[C@H](Oc1ccc(C(F)(F)F)cc1)c1ccc(Cl)cc1 [Example 62],7.9 nM
20,"CCCC(c1ccc(C(=O)NCCC(=O)O)cc1)C(COc1ccc2cc(OC)ccc2c1)c1ccc(Cl)cc1 (racemic) [Example 86, N-[4-(1-{1-(4-chlorophenyl)-2-[(6-methoxy-2-naphthyl)oxy]ethyl}butyl)benzoyl]-β-alanine]",16 nM
21,"CCC[C@H](c1ccc(C(=O)NCCC(=O)O)cc1)[C@@H](Oc1ccnc2c(C)cc(Cl)cc12)c1ccc(Cl)cc1 [Example 67, N-(4-{(1R)-1-[(R)-[(6-chloro-8-methylquinolin-4-yl)oxy](4-chlorophenyl)methyl]butyl}benzoyl)-β-alanine]",6.6 nM
22,CCC[C@H](c1ccc(C(=O)NCCC(=O)O)cc1)[C@@H](Oc1ccc(C#N)c2ccccc12)c1ccc(Cl)cc1 [Example 9],6.2 nM
23,"CCC[C@H](c1ccc(C(=O)NCCC(=O)O)cc1)[C@@H](Oc1cc(C#N)cc(C(F)(F)F)c1)c1ccc(OC(F)(F)F)cc1 [Example 77, N-[4-((1R)-1-{(R)-(4-trifluoromethoxyphenyl)[3-cyano-5-(trifluoromethyl)phenoxy]methyl}butyl)benzoyl]-β-alanine]",2.5 nM
24,"CCC[C@H](c1ccc(C(=O)NCCC(=O)O)cc1)[C@@H](OCc1ccc(-c2ccccc2)cc1)c1ccc(Cl)cc1 [Example 74, N-(4-{(1R)-1-[(R)-(biphenyl-4-ylmethoxy)(4-chlorophenyl)methyl]butyl}benzoyl)-β-alanine]",20 nM
25,"N#Cc1cc(Cl)cc(O[C@@H](c2ccc(Cl)cc2)[C@H](CCC(F)(F)F)c2ccc(C(=O)NCCC(=O)O)cc2)c1 [Example 75, N-(4-{(1R)-1-[(R)-(3-chloro-5-cyanophenoxy)(4-chlorophenyl)methyl]-4,4,4-trifluorobutyl}benzoyl)-β-alanine]",18 nM
26,CCC[C@H](c1ccc(C(=O)NCCC(=O)O)cc1)[C@@H](Oc1ccc(C(F)(F)F)cc1C#N)c1ccc(Cl)cc1 [Example 80],3.6 nM
27,"CCC[C@H](c1ccc(C(=O)NCCC(=O)O)cc1)[C@@H](Oc1ccnc2cc(Cl)ccc12)c1ccc(Cl)cc1 [Example 69, N-[4-((1R)-1-{(R)-(4-chlorophenyl)[(7-chloroquinolin-4-yl)oxy]methyl}butyl)benzoyl]-β-alanine]",4.5 nM

# Same assay, conditions: comparison of major and minor racemic diastereomers
row,Compound,more potent glucagon receptor antagonist of the two diastereomers
1,CCCC(c1ccc(C(=O)NCCC(=O)O)cc1)C(COc1ccc2cc(OC)ccc2c1)c1ccc(Cl)cc1 (stereo not drawn) [86 major diastereomer],more potent glucagon receptor antagonist
